The text below walks through data of US8871753B2, “Macrocyclic compounds and their use as kinase inhibitors” (Incyte Corporation, priority 2008, dated 2014).

Holding throughout (assay type): biochemical
Test [1] has as its target T1, human JAK1 (a.a. 837-1142) (Homo sapiens, UniProt P23458).
T1 construct: human JAK1 (a.a. 837-1142); His tag (N); made in house; host or cells: insect cells (baculovirus)
Briefly: In vitro JAK kinase assay (HTRF, phosphorylation of a biotinylated peptide), JAK1. Conditions: read-out: JAK1 IC50. A digest of the protocol: (§1)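 Phosphorylation of a biotinylated peptide by the JAK kinase domain, detected by HTRF with Eu-Py20 and SA-APC. ATP was 90 μM for JAK1, 30 μM for JAK2 and 3 μM for JAK3. Reactions ran 1 h at room temperature and were stopped with EDTA, followed by 40 min antibody binding.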
A general note: In TR-FRET formats the signal depends on donor and acceptor labels being close together.

Test [2] concerns the target T2, human JAK2 (a.a. 828-1132) (Homo sapiens, UniProt O60674).
T2 construct: JAK2 (a.a. 828-1132); His tag (N); made in house; host or cells: insect cells (baculovirus)
Kind of test: In vitro JAK kinase assay (HTRF, phosphorylation of a biotinylated peptide), JAK2. A digest of the protocol: as §1

The target in test [3] is T3, human JAK3 (a.a. 781-1124) (Homo sapiens, UniProt P52333).
T3 construct: JAK3 (a.a. 781-1124); His tag (N); made in house; host or cells: insect cells (baculovirus)
T3 sequence (P52333 781-1124): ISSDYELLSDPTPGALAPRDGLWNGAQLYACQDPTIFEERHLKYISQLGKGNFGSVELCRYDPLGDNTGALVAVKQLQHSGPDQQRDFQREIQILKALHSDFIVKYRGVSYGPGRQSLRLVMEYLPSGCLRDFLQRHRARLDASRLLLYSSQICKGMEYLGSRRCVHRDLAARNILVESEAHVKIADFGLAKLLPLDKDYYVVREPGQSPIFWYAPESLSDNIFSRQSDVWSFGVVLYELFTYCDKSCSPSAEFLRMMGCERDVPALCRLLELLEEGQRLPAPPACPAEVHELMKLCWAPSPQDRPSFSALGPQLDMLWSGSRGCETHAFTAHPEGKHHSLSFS
Kind of test: In vitro JAK kinase assay (HTRF, phosphorylation of a biotinylated peptide), JAK3. A digest of the protocol:
as §1

The target in another test is TYK2 (Homo sapiens, UniProt P29597). Briefly: TYK2 kinase inhibition (Table A1).
Chain of TYK2 (P29597 whole entry): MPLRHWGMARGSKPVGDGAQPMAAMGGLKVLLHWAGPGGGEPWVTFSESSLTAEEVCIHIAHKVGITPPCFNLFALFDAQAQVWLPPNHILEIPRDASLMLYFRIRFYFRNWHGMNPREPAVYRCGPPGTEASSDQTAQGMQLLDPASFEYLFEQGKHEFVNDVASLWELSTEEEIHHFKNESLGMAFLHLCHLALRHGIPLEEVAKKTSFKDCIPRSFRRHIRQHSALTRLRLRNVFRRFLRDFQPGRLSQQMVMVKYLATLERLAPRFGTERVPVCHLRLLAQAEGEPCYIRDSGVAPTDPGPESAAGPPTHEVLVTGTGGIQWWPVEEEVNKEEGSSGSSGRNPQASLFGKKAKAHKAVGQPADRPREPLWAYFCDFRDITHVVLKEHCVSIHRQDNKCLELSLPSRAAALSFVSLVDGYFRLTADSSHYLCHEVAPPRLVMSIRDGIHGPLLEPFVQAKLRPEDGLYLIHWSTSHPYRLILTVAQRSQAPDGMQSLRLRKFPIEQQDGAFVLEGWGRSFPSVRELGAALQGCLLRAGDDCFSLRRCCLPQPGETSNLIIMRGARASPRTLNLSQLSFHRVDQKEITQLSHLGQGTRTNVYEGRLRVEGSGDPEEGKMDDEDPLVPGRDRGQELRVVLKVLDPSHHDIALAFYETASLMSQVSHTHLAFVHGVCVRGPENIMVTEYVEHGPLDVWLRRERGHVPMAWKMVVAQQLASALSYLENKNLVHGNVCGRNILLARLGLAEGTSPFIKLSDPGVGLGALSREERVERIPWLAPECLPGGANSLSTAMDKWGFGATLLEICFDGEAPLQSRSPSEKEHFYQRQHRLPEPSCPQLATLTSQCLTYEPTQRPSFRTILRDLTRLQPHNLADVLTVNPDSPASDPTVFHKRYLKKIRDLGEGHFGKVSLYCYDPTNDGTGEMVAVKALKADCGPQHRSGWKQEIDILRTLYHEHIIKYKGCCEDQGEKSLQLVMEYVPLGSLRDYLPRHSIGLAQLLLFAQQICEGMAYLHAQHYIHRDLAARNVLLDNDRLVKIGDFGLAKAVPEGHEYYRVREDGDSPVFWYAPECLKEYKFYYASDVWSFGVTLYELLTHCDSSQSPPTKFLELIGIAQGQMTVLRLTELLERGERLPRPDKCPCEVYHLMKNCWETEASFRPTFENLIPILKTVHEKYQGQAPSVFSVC

Counter-ions that a name gives are not always drawn. Like-named read-outs stand apart in the source and are kept apart here.

T2 sequence (O60674 828-1132): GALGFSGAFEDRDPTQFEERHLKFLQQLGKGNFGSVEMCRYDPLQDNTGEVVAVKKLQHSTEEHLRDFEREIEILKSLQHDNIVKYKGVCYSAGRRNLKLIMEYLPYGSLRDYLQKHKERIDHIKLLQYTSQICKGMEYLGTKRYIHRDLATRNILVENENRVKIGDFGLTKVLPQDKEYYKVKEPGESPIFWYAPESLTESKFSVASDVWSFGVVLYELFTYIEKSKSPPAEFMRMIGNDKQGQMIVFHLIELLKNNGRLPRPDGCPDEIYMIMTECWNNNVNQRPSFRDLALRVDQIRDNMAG
T1 sequence (P23458 849-1154): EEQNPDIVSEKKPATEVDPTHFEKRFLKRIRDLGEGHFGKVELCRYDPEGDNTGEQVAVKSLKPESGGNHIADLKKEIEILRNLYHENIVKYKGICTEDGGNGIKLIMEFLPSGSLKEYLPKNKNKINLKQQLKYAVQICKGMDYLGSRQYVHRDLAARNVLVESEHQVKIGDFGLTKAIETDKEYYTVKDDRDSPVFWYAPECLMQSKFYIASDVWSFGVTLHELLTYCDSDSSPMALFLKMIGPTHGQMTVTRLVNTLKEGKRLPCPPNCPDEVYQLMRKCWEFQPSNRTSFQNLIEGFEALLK

Usually IC50 stands for the concentration that gives 50% inhibition. For `O=C(CC1CN(c2nc3cccnc3o2)C1)Nc1ccc2cc1CCc1cncc(c1)Nc1ncc(Cl)c(n1)N2` [Example D141, N-[6-Chloro-2,4,8,18,22-pentaazatetracyclo[14.3.1.1(3,7).1(9,13)]docosa-1(20),3(22),4,6,9(21),10,12,16,18-nonaen-12-yl]-2-(1-[1,3]oxazolo[5,4-b]pyridin-2-ylazetidin-3-yl)acetamide tris(trifluoroacetate)], the concentration for half-maximal inhibition (IC50) in test [1] (Table D1) was 9 nM; in test [2] (Table D1), 106 nM; in test [3] (Table D1) it was more than 1000 nM; at TYK2 (Table D1) it was 262 nM.

Regarding `O=C(COc1ccc2cc1CCc1cncc(c1)Nc1ncc(Cl)c(n1)N2)N1CCN(c2nccs2)CC1` [Example D230, 6-Chloro-12-{2-oxo-2-[4-(1,3-thiazol-2-yl)piperazin-1-yl]ethoxy}-2,4,8,18,22-pentaazatetracyclo[14.3.1.1(3,7).1(9,13)]docosa-1(20),3(22),4,6,9(21),10,12,16,18-nonaene tris(trifluoroacetate)], the IC50 is 25 nM in test [1] (Table D1), 47 nM in test [2] (Table D1), more than 400 nM in test [3] (Table D1) and more than 400 nM against TYK2 (Table D1).

Take `NC(=O)N1CCN(C(=O)COc2ccc3cc2CCc2cncc(c2)Nc2ncc(Cl)c(n2)N3)CC1` [Example D270, 4-({[6-Chloro-2,4,8,18,22-pentaazatetracyclo[14.3.1.1(3,7).1(9,13)]docosa-1(20),3(22),4,6,9(21),10,12,16,18-nonaen-12-yl]oxy}acetyl)piperazine-1-carboxamide bis(trifluoroacetate)]: the 50% inhibitory concentration (IC50) is 23 nM in test [1] (Table D1), 80 nM in test [2] (Table D1), more than 400 nM in test [3] (Table D1) and 265 nM on TYK2 (Table D1).

In the case of `COC(=O)Cn1c(=O)oc2c3cc(cc21)Nc1nc(ncc1Cl)Nc1cccc(c1)CC3` [Example D183, Methyl [4-chloro-19-oxo-18-oxa-2,6,8,20,25-pentaazapentacyclo[14.6.1.1(3,7).1(9,13).0(17,21)]pentacosa-1(23),3(25),4,6,9(24),10,12,16,21-nonaen-20-yl]acetate trifluoroacetate], the IC50 in test [1] (Table D1) was found to be 12 nM; in test [2] (Table D1), 22 nM; in test [3] (Table D1) it was 64 nM; at TYK2 (Table D1), 166 nM.

On to `CC(=O)N1CCC[C@@H](CC(=O)Nc2ccc3cc2CCc2cccc(c2)Nc2ncc(Cl)c(n2)N3)C1` [Example D200, 2-[(3S)-1-Acetylpiperidin-3-yl]-N-[6-chloro-2,4,8,22-tetraazatetracyclo[14.3.1.1(3,7).1(9,13)]docosa-1(20),3(22),4,6,9(21),10,12,16,18-nonaen-12-yl]acetamide trifluoroacetate], for which the concentration for half-maximal inhibition (IC50) in test [1] (Table D1) is 8.1 nM; in test [2] (Table D1), 9.3 nM; in test [3] (Table D1) it was 34 nM; on TYK2 (Table D1), 12 nM.

Turning to `COC(=O)c1ccc2cc1CCc1cncc(c1)Nc1ncc(Cl)c(n1)N2` [Example C28, Methyl 6-chloro-2,4,8,18,22-pentaazatetracyclo[14.3.1.1(3,7).1(9,13)]docosa-1(20),3(22),4,6,9(21),10,12,16,18-nonaene-12-carboxylate], the IC50 was 120 nM in test [1], 100 nM in test [2], more than 200 nM in test [3] and more than 200 nM against TYK2.

`CC(=O)N1CCN(c2ccc3cc2CCc2cccc(c2)Nc2ncc(Cl)c(n2)N3)CC1` [Example D85, 12-(4-Acetylpiperazin-1-yl)-6-chloro-2,4,8,22-tetraazatetracyclo[14.3.1.1(3,7).1(9,13)]docosa-1(20),3(22),4,6,9(21),10,12,16,18-nonaene bis(trifluoroacetate)]: the IC50 in test [1] (Table D1) worked out at 24 nM; in test [2] (Table D1), 6.6 nM; in test [3] (Table D1), 31 nM; at TYK2 (Table D1), 40 nM.

In the case of `O=C(C[C@H]1CCN(c2nc3cccnc3o2)C1)Nc1ccc2cc1CCc1cncc(c1)Nc1ncc(Cl)c(n1)N2` [Example D139, N-[6-Chloro-2,4,8,18,22-pentaazatetracyclo[14.3.1.1(3,7).1(9,13)]docosa-1(20),3(22),4,6,9(21),10,12,16,18-nonaen-12-yl]-2-[(3R)-1-[1,3]oxazolo[5,4-b]pyridin-2-ylpyrrolidin-3-yl]acetamide tris(trifluoroacetate)], the IC50 in test [1] (Table D1) is 12 nM; in test [2] (Table D1), 159 nM; in test [3] (Table D1), more than 1000 nM; against TYK2 (Table D1), 282 nM.

Turning to `O=C(Nc1ccc2cc1CCc1cccc(c1)Nc1ncc(Cl)c(n1)N2)N1CCCC1` [Example B81, N-[6-Chloro-2,4,8,22-tetraazatetracyclo[14.3.1.1(3,7).1(9,13)]docosa-1(20), 3(22),4,6,9(21),10,12,16,18-nonaen-12-yl]pyrrolidine-1-carboxamide trifluoroacetate], the IC50 in test [1] (Table B1) is 109 nM; in test [2] (Table B1), 123 nM; in test [3] (Table B1), 475 nM; against TYK2 (Table B1), 221 nM.

With `N#Cc1ccc(N2CCN(C(=O)COc3ccc4cc3CCc3cncc(c3)Nc3ncc(Cl)c(n3)N4)CC2)nc1` [Example D239, 6-[4-({[6-Chloro-2,4,8,18,22-pentaazatetracyclo[14.3.1.1(3,7).1(9,13)]docosa-1(20),3(22),4,6,9(21),10,12,16,18-nonaen-12-yl]oxy}acetyl)piperazin-1-yl]nicotinonitrile tris(trifluoroacetate)], the IC50 was 101 nM in test [1] (Table D1), 208 nM in test [2] (Table D1), more than 400 nM in test [3] (Table D1) and more than 400 nM against TYK2 (Table D1).

Consider `O=C(Cc1ccco1)Nc1ccc2cc1CCc1cccc(c1)Nc1ncc(Cl)c(n1)N2` [Example C36, N-[6-Chloro-2,4,8,22-tetraazatetracyclo[14.3.1.1(3,7).1(9,13)]docosa-1(20),3(22),4,6,9(21),10,12,16,18-nonaen-12-yl]-2-(2-furyl)acetamide trifluoroacetate], for which the IC50 amounted to 33 nM in test [1], 42 nM in test [2], 663 nM in test [3] and 103 nM against TYK2.

In the case of `N#Cc1ccccc1N1CCN(C(=O)COc2ccc3cc2CCc2cncc(c2)Nc2ncc(Cl)c(n2)N3)CC1` [Example D235, 2-[4-({[6-Chloro-2,4,8,18,22-pentaazatetracyclo[14.3.1.1(3,7).1(9,13)]docosa-1(20),3(22),4,6,9(21),10,12,16,18-nonaen-12-yl]oxy}acetyl)piperazin-1-yl]benzonitrile tris(trifluoroacetate)], the IC50 in test [1] (Table D1) was 64 nM; in test [2] (Table D1), more than 400 nM; in test [3] (Table D1), more than 400 nM; on TYK2 (Table D1), more than 400 nM.

As for `O=C(c1ccccn1)N1Cc2cccc(c2)Nc2ncc(Cl)c(n2)Nc2cccc1c2` [Example C23, 6-Chloro-14-(pyridin-2-ylcarbonyl)-2,4,8,14,22-pentaazatetracyclo[14.3.1.1(3,7).1(9,13)]docosa-1(20),3(22),4,6,9(21),10,12,16,18-nonaene], the IC50 in test [1] was 162 nM; in test [2], 281 nM; in test [3], more than 10000 nM; against TYK2, 1140 nM.

As to `O=C(Cc1cccs1)Nc1ccc2cc1CCc1cccc(c1)Nc1ncc(Cl)c(n1)N2` [Example C42, N-[6-Chloro-2,4,8,22-tetraazatetracyclo[14.3.1.1(3,7).1(9,13)]docosa-1(20),3(22),4,6,9(21),10,12,16,18-nonaen-12-yl]-2-(2-thienyl)acetamide trifluoroacetate], the IC50 came to 37 nM in test [1], 23 nM in test [2], 346 nM in test [3] and 96 nM against TYK2.

`O=C(COc1ccc2cc1CCc1cncc(c1)Nc1ncc(Cl)c(n1)N2)N1CCN(C(=O)Nc2ccccc2)CC1` [Example D264, 4-({[6-Chloro-2,4,8,18,22-pentaazatetracyclo[14.3.1.1(3,7).1(9,13)]docosa-1(20),3(22),4,6,9(21),10,12,16,18-nonaen-12-yl]oxy}acetyl)-N-phenylpiperazine-1-carboxamide bis(trifluoroacetate)]: the IC50 is 6.1 nM in test [1] (Table D1), 22 nM in test [2] (Table D1), more than 400 nM in test [3] (Table D1) and 300 nM against TYK2 (Table D1).

As for `Cc1occc1NC(=O)N1CCC(CCOc2ccc3cc2CCc2cncc(c2)Nc2ncc(Cl)c(n2)N3)CC1` [Example D164, 4-(2-{[6-Chloro-2,4,8,18,22-pentaazatetracyclo[14.3.1.1(3,7).1(9,13)]docosa-1(20),3(22),4,6,9(21),10,12,16,18-nonaen-12-yl]oxy}ethyl)-N-(2-methyl-3-furyl)piperidine-1-carboxamide bis(trifluoroacetate)], the IC50 in test [1] (Table D1) is 39 nM; in test [2] (Table D1) it was 75 nM; in test [3] (Table D1), more than 400 nM; on TYK2 (Table D1), more than 400 nM.

For the compound `O=C(COc1ccc2cc1CCc1cncc(c1)Nc1ncc(Cl)c(n1)N2)N1CCN(c2cc(Cl)ccn2)CC1` [Example D244, 6-Chloro-12-{2-[4-(4-chloropyridin-2-yl)piperazin-1-yl]-2-oxoethoxy}-2,4,8,18,22-pentaazatetracyclo[14.3.1.1(3,7).1(9,13)]docosa-1(20),3(22),4,6,9(21),10,12,16,18-nonaene tris(trifluoroacetate)], the IC50 in test [1] (Table D1) was 80 nM; in test [2] (Table D1) it was 358 nM; in test [3] (Table D1), more than 400 nM; against TYK2 (Table D1), more than 400 nM.
